Measured values taken from US20260256792A1, “TREATMENT OF CHRONIC SPONTANEOUS URTICARIA BY ADMINISTERING (R)-2-[3-[4-AMINO-3-(2-FLUORO-4-PHENOXY-PHENYL)PYRAZOLO[3,4-D]PYRIMIDIN-1-YL]PIPERIDINE-1-CARBONYL]-4-METHYL-4-[4-(OXETAN-3-YL)PIPERAZIN-1-YL]PENT-2-ENENITRILE” (priority 2023, published 2026).

Test system: moderate-to-severe chronic spontaneous urticaria (CSU)
Assay: Phase 2 CSU study: itch severity score over 7 days (ISS7)
Assay type: in vivo, human
Details: Omalizumab-Naïve Population
Text: The study comprises a 12 week, randomized, double-blind, placebo-controlled, multi-center, dose-ranging efficacy and safety phase, followed by a 40 week open label extension (OLE) phase (see FIG. 1). The study consists of three phases and an optional OLE phase. […] Clinically, CSU is characterized by the spontaneous and recurrent appearance of pruritic hives. The proposed primary endpoints were the UAS7 at Week 12 in EU and EU reference countries and the ISS7 in the US. Regardless of where a participant was from, all assessments were the same. The UAS7 score is a composite score containing both the HSS7 and the ISS7. This allowed a global assessment of the two key components of urticaria: hives and itch. […] The UAS is a validated PRO measure. […] The daily UAS scores range from 0 to 6 point/day. […] Patients were to complete the UAS using the e-diary. […] The following secondary endpoints were to be analyzed using the same approach as for the primary endpoint: • Change from baseline in UAS7 at Week 4 • Change from baseline in UAS7 at Week 12 (for US and US reference countries) • Change from baseline in ISS7 at Week 12 (except US and US reference countries) • Change from baseline in HSS7 at Week 12

CC(C)(C=C(C#N)C(=O)N1CCC[C@@H](n2nc(-c3ccc(Oc4ccccc4)cc3F)c3c(N)ncnc32)C1)N1CCN(C2COC2)CC1 [rilzabrutinib, (R)-2-[3-[4-amino-3-(2-fluoro-4-phenoxy-phenyl)pyrazolo[3,4-d]pyrimidin-1-yl]piperidine-1-carbonyl]-4-methyl-4-[4-(oxetan-3-yl)piperazin-1-yl]pent-2-enenitrile]
Imputed non-responder n (%) (ISS7 reduction of 5 points or more) (400 mg BID, Week 3): 0 n (%) | Non-responder n (%) (ISS7 reduction of 5 points or more) (400 mg BID, Week 3): 17 (48.6) n (%) | OR for rilzabrutinib vs. placebo (ISS7 reduction of 5 points or more) (400 mg BID, Week 3): 2.418 | RRD (%) for rilzabrutinib vs. placebo (ISS7 reduction of 5 points or more) (400 mg BID, Week 3): 21.1% | Responder n (%) (ISS7 reduction of 5 points or more) (400 mg BID, Week 3): 18 (51.4) n (%) | Imputed non-responder n (%) (ISS7 reduction of 5 points or more) (400 mg BID, Week 4): 2 (5.7) n (%) | Non-responder n (%) (ISS7 reduction of 5 points or more) (400 mg BID, Week 4): 17 (48.6) n (%) | OR for rilzabrutinib vs. placebo (ISS7 reduction of 5 points or more) (400 mg BID, Week 4): 1.476 | Responder n (%) (ISS7 reduction of 5 points or more) (400 mg BID, Week 4): 18 (51.4) n (%) | Imputed non-responder n (%) (ISS7 reduction of 5 points or more) (400 mg BID, Week 5): 2 (5.7) n (%) | Non-responder n (%) (ISS7 reduction of 5 points or more) (400 mg BID, Week 5): 15 (42.9) n (%) | OR for rilzabrutinib vs. placebo (ISS7 reduction of 5 points or more) (400 mg BID, Week 5): 1.334 | RRD (%) for rilzabrutinib vs. placebo (ISS7 reduction of 5 points or more) (400 mg BID, Week 5): 7.3% | Responder n (%) (ISS7 reduction of 5 points or more) (400 mg BID, Week 5): 20 (57.1) n (%) | Imputed non-responder n (%) (ISS7 reduction of 5 points or more) (400 mg BID, Week 6): 2 (5.7) n (%) | Non-responder n (%) (ISS7 reduction of 5 points or more) (400 mg BID, Week 6): 17 (48.6) n (%) | OR for rilzabrutinib vs. placebo (ISS7 reduction of 5 points or more) (400 mg BID, Week 6): 1.326 | RRD (%) for rilzabrutinib vs. placebo (ISS7 reduction of 5 points or more) (400 mg BID, Week 6): 7.1% | Responder n (%) (ISS7 reduction of 5 points or more) (400 mg BID, Week 6): 18 (51.4) n (%) | Imputed non-responder n (%) (ISS7 reduction of 5 points or more) (400 mg BID, Week 7): 2 (5.7) n (%) | Non-responder n (%) (ISS7 reduction of 5 points or more) (400 mg BID, Week 7): 16 (45.7) n (%) | OR for rilzabrutinib vs. placebo (ISS7 reduction of 5 points or more) (400 mg BID, Week 7): 1.533 | Responder n (%) (ISS7 reduction of 5 points or more) (400 mg BID, Week 7): 19 (54.3) n (%) | Imputed non-responder n (%) (ISS7 reduction of 5 points or more) (400 mg BID, Week 8): 3 (8.6) n (%) | Non-responder n (%) (ISS7 reduction of 5 points or more) (400 mg BID, Week 8): 13 (37.1) n (%) | OR for rilzabrutinib vs. placebo (ISS7 reduction of 5 points or more) (400 mg BID, Week 8): 1.690 | RRD (%) for rilzabrutinib vs. placebo (ISS7 reduction of 5 points or more) (400 mg BID, Week 8): 13.7% | Responder n (%) (ISS7 reduction of 5 points or more) (400 mg BID, Week 8): 22 (62.9) n (%) | Imputed non-responder n (%) (ISS7 reduction of 5 points or more) (400 mg BID, Week 9): 7 (20.0) n (%) | Non-responder n (%) (ISS7 reduction of 5 points or more) (400 mg BID, Week 9): 16 (45.7) n (%) | OR for rilzabrutinib vs. placebo (ISS7 reduction of 5 points or more) (400 mg BID, Week 9): 1.462 | Responder n (%) (ISS7 reduction of 5 points or more) (400 mg BID, Week 9): 19 (54.3) n (%) | Imputed non-responder n (%) (ISS7 reduction of 5 points or more) (400 mg BID, Week 10): 8 (22.9) n (%) | Non-responder n (%) (ISS7 reduction of 5 points or more) (400 mg BID, Week 10): 19 (54.3) n (%) | OR for rilzabrutinib vs. placebo (ISS7 reduction of 5 points or more) (400 mg BID, Week 10): 0.883 | RRD (%) for rilzabrutinib vs. placebo (ISS7 reduction of 5 points or more) (400 mg BID, Week 10): −3.1% | Responder n (%) (ISS7 reduction of 5 points or more) (400 mg BID, Week 10): 16 (45.7) n (%) | Imputed non-responder n (%) (ISS7 reduction of 5 points or more) (400 mg BID, Week 11): 7 (20.0) n (%) | Non-responder n (%) (ISS7 reduction of 5 points or more) (400 mg BID, Week 11): 16 (45.7) n (%) | OR for rilzabrutinib vs. placebo (ISS7 reduction of 5 points or more) (400 mg BID, Week 11): 0.963 | RRD (%) for rilzabrutinib vs. placebo (ISS7 reduction of 5 points or more) (400 mg BID, Week 11): −1.0% | Responder n (%) (ISS7 reduction of 5 points or more) (400 mg BID, Week 11): 19 (54.3) n (%) | Imputed non-responder n (%) (ISS7 reduction of 5 points or more) (400 mg BID, Week 12): 11 (31.4) n (%) | Non-responder n (%) (ISS7 reduction of 5 points or more) (400 mg BID, Week 12): 18 (51.4) n (%) | OR for rilzabrutinib vs. placebo (ISS7 reduction of 5 points or more) (400 mg BID, Week 12): 1.095 | RRD (%) for rilzabrutinib vs. placebo (ISS7 reduction of 5 points or more) (400 mg BID, Week 12): 2.4% | Responder n (%) (ISS7 reduction of 5 points or more) (400 mg BID, Week 12): 17 (48.6) n (%) | Imputed non-responder n (%) (ISS7 reduction of 5 points or more) (400 mg QPM, Week 1): 0 n (%) | Non-responder n (%) (ISS7 reduction of 5 points or more) (400 mg QPM, Week 1): 25 (67.6) n (%) | OR for rilzabrutinib vs. placebo (ISS7 reduction of 5 points or more) (400 mg QPM, Week 1): 1.691 | Responder n (%) (ISS7 reduction of 5 points or more) (400 mg QPM, Week 1): 12 (32.4) n (%) | Imputed non-responder n (%) (ISS7 reduction of 5 points or more) (400 mg QPM, Week 2): 0 n (%) | Non-responder n (%) (ISS7 reduction of 5 points or more) (400 mg QPM, Week 2): 23 (62.2) n (%) | OR for rilzabrutinib vs. placebo (ISS7 reduction of 5 points or more) (400 mg QPM, Week 2): 1.637 | Responder n (%) (ISS7 reduction of 5 points or more) (400 mg QPM, Week 2): 14 (37.8) n (%) | Imputed non-responder n (%) (ISS7 reduction of 5 points or more) (400 mg QPM, Week 3): 0 n (%) | Non-responder n (%) (ISS7 reduction of 5 points or more) (400 mg QPM, Week 3): 20 (54.1) n (%) | OR for rilzabrutinib vs. placebo (ISS7 reduction of 5 points or more) (400 mg QPM, Week 3): 1.910 | RRD (%) for rilzabrutinib vs. placebo (ISS7 reduction of 5 points or more) (400 mg QPM, Week 3): 16.0% | Responder n (%) (ISS7 reduction of 5 points or more) (400 mg QPM, Week 3): 17 (45.9) n (%) | Imputed non-responder n (%) (ISS7 reduction of 5 points or more) (400 mg QPM, Week 4): 1 (2.7) n (%) | Non-responder n (%) (ISS7 reduction of 5 points or more) (400 mg QPM, Week 4): 20 (54.1) n (%) | OR for rilzabrutinib vs. placebo (ISS7 reduction of 5 points or more) (400 mg QPM, Week 4): 1.231 | RRD (%) for rilzabrutinib vs. placebo (ISS7 reduction of 5 points or more) (400 mg QPM, Week 4): 5.0% | Responder n (%) (ISS7 reduction of 5 points or more) (400 mg QPM, Week 4): 17 (45.9) n (%) | Imputed non-responder n (%) (ISS7 reduction of 5 points or more) (400 mg QPM, Week 5): 2 (5.4) n (%) | Non-responder n (%) (ISS7 reduction of 5 points or more) (400 mg QPM, Week 5): 21 (56.8) n (%) | OR for rilzabrutinib vs. placebo (ISS7 reduction of 5 points or more) (400 mg QPM, Week 5): 0.787 | RRD (%) for rilzabrutinib vs. placebo (ISS7 reduction of 5 points or more) (400 mg QPM, Week 5): −6.3% | Responder n (%) (ISS7 reduction of 5 points or more) (400 mg QPM, Week 5): 16 (43.2) n (%) | Imputed non-responder n (%) (ISS7 reduction of 5 points or more) (400 mg QPM, Week 6): 4 (10.8) n (%) | Non-responder n (%) (ISS7 reduction of 5 points or more) (400 mg QPM, Week 6): 20 (54.1) n (%) | OR for rilzabrutinib vs. placebo (ISS7 reduction of 5 points or more) (400 mg QPM, Week 6): 1.088 | RRD (%) for rilzabrutinib vs. placebo (ISS7 reduction of 5 points or more) (400 mg QPM, Week 6): 2.0% | Responder n (%) (ISS7 reduction of 5 points or more) (400 mg QPM, Week 6): 17 (45.9) n (%) | Imputed non-responder n (%) (ISS7 reduction of 5 points or more) (400 mg QPM, Week 7): 6 (16.2) n (%) | Non-responder n (%) (ISS7 reduction of 5 points or more) (400 mg QPM, Week 7): 19 (51.4) n (%) | OR for rilzabrutinib vs. placebo (ISS7 reduction of 5 points or more) (400 mg QPM, Week 7): 1.176 | RRD (%) for rilzabrutinib vs. placebo (ISS7 reduction of 5 points or more) (400 mg QPM, Week 7): 4.0% | Responder n (%) (ISS7 reduction of 5 points or more) (400 mg QPM, Week 7): 18 (48.6) n (%) | Imputed non-responder n (%) (ISS7 reduction of 5 points or more) (400 mg QPM, Week 8): 7 (18.9) n (%) | Non-responder n (%) (ISS7 reduction of 5 points or more) (400 mg QPM, Week 8): 20 (54.1) n (%) | OR for rilzabrutinib vs. placebo (ISS7 reduction of 5 points or more) (400 mg QPM, Week 8): 0.843 | RRD (%) for rilzabrutinib vs. placebo (ISS7 reduction of 5 points or more) (400 mg QPM, Week 8): −4.4% | Responder n (%) (ISS7 reduction of 5 points or more) (400 mg QPM, Week 8): 17 (45.9) n (%) | Imputed non-responder n (%) (ISS7 reduction of 5 points or more) (400 mg QPM, Week 9): 6 (16.2) n (%) | Non-responder n (%) (ISS7 reduction of 5 points or more) (400 mg QPM, Week 9): 18 (48.6) n (%) | OR for rilzabrutinib vs. placebo (ISS7 reduction of 5 points or more) (400 mg QPM, Week 9): 1.328 | RRD (%) for rilzabrutinib vs. placebo (ISS7 reduction of 5 points or more) (400 mg QPM, Week 9): 6.5% | Responder n (%) (ISS7 reduction of 5 points or more) (400 mg QPM, Week 9): 19 (51.4) n (%) | Imputed non-responder n (%) (ISS7 reduction of 5 points or more) (400 mg QPM, Week 10): 6 (16.2) n (%)
